Source: publication PMC6728359, “Crystal structure and chemical inhibition of essential schistosome host-interactive virulence factor carbonic anhydrase SmCA” (Communications Biology, 2019)
Read-outs that look alike come from different tables or passages of the source.

What was measured:
[1] = target: rSmCA (recombinant SmCA, α-carbonic anhydrase) (Schistosoma mansoni, UniProt A0A3Q0KSG2); experiment: biochemical; assay type: biochemical
[2] = target: recombinant human isoform hCA I; conditions: cited from earlier work
[3] = target: recombinant human isoform hCA II; conditions: cited from earlier work

Chain of rSmCA (recombinant SmCA, α-carbonic anhydrase) (A0A3Q0KSG2 21-298 limits assumed): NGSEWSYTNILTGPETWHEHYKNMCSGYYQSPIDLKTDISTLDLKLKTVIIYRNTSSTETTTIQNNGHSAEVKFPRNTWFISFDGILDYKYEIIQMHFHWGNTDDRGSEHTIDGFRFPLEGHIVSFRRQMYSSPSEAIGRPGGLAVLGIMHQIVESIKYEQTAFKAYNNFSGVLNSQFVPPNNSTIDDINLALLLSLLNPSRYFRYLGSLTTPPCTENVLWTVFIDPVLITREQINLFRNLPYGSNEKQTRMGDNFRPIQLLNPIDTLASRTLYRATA

O=S(=O)(O)F [FSO3^−]
Ki ([1]; read-out: Ki SmCA): 6.02 mM

NS(=O)(=O)c1cc2c(cc1Cl)NCNS2(=O)=O [HCT, hydrochlorothiazide]
Ki [1]: 0.000399 mM

OsO5^2−
Ki ([1]; read-out: Ki SmCA): 7.55 mM

CCN(CC)C(=S)S [Et2NCS2^−]
Ki ([1]; read-out: Ki SmCA): 0.59 mM | Ki [2]: 0.0008 mM | Ki [3]: 0.0031 mM

[N-]=[N+]=[N-] [N3^−, azide]
Ki ([1]; read-out: Ki SmCA): 2.43 mM

[O]=[Re](=[O])(=[O])[OH] [ReO4^−]
Ki ([1]; read-out: Ki SmCA): 8.75 mM

I [I^−, iodide]
Ki ([1]; read-out: Ki SmCA): 5.11 mM | Ki [2]: 0.3 mM

OB(O)c1ccccc1 [Ph-B(OH) 2, phenylboronic acid]
Ki [1]: 0.02 mM | higher affinity for SmCA versus human isoforms hCA I or hCA II [1]: > 1000 fold | Ki [2]: 58.6 mM

O=[Se](=O)(O)O [SeO4^2−]
Ki ([1]; read-out: Ki SmCA): 6.33 mM

S [HS^−, hydrosulfide]
Ki ([1]; read-out: Ki SmCA): 5.96 mM | Ki [2]: 0.0006 mM

P2O7^4−
Ki ([1]; read-out: Ki SmCA): > 100 mM | Ki [2]: 25.8 mM

NS(=O)(=O)Cc1noc2ccccc12 [ZNS, zonisamide]
Ki [1]: 0.000937 mM

N#CS [SCN−, thiocyanate]
Ki ([1]; read-out: Ki SmCA): 3.15 mM

F [F^−, fluoride]
Ki ([1]; read-out: Ki SmCA): 6.44 mM

N#CO [CNO^−, cyanate]
Ki ([1]; read-out: Ki SmCA): 4.18 mM

[O]=[Ru](=[O])(=[O])=[O] [RuO4^−]
Ki ([1]; read-out: Ki SmCA): 2.07 mM

NS(=O)(=O)c1ccc(S(=O)(=O)Nc2cccc3c(Cl)c[nH]c23)cc1 [IND, indisulam]
Ki [1]: 3.65e-05 mM

O=[Te](=O)(O)O [TeO4^2−]
Ki ([1]; read-out: Ki SmCA): > 100 mM | Ki [2]: 0.66 mM

NS(=O)(=O)c1nnc(NS(=O)(=O)c2ccccc2)s1 [BZA, benzolamide]
Ki [1]: 3.41e-05 mM

NS(N)(=O)=O [H 2 NSO 2 NH 2, sulfamide]
greater potency over SmCA versus hCA I [1]: 44 fold | greater potency over SmCA versus hCA II [1]: 161 fold | Ki ([1]; read-out: Ki SmCA): 0.007 mM

CC(=O)/N=c1/sc(S(N)(=O)=O)nn1C [MZA, methazolamide]
Ki [1]: 3.89e-05 mM

Cc1onc(-c2ccccc2)c1-c1ccc(S(N)(=O)=O)cc1 [VLX, valdecoxib]
Ki [1]: 0.000431 mM

CCN[C@H]1CN(CCCOC)S(=O)(=O)c2sc(S(N)(=O)=O)cc21 [BRZ, brinzolamide]
Ki [1]: 4.66e-05 mM

CC1(C)O[C@@H]2[C@@H](CO[C@@]3(COS(N)(=O)=O)OC(C)(C)O[C@@H]23)O1 [TPM, topiramate]
Ki [1]: 0.000568 mM | Ki ([3]; read-out: Ki hCAII): 1e-05 mM

[O-][Cl+3]([O-])([O-])O [ClO4^−, perchlorate]
Ki ([1]; read-out: Ki SmCA): > 100 mM

O=[N+]([O-])O [NO3−, nitrate]
Ki ([1]; read-out: Ki SmCA): 7.87 mM | Ki [2]: 7 mM

O=[As](O)(O)c1ccccc1 [Ph-AsO 3 H 2, phenylarsonic acid]
Ki [2]: 31.7 mM | Ki [3]: 49.2 mM

O=C(O)O [HCO3−]
Ki ([1]; read-out: Ki SmCA): 5.1 mM

O=C1NS(=O)(=O)c2ccccc21 [SAC, saccharin]
Ki [1]: > 0.05 mM | Ki ([2]; read-out: Ki hCAI): 0.0185 mM

O=S(O)O [HSO3^−]
Ki ([1]; read-out: Ki SmCA): > 100 mM | Ki [2]: 18 mM

N#C[SeH] [SeCN^−]
Ki ([1]; read-out: Ki SmCA): 2.16 mM | Ki [2]: 0.085 mM

[Br-].[K+] [Br−, bromide]
Ki ([1]; read-out: Ki SmCA): 9.35 mM | Ki [2]: 4 mM | Ki [3]: 63 mM

CS3^2−
Ki ([1]; read-out: Ki SmCA): 6.16 mM | Ki [2]: 0.0087 mM

[O]=[Sn]([OH])[OH] [SnO3^2−]
Ki ([1]; read-out: Ki SmCA): 4.11 mM

NS(=O)(=O)c1ccc(N2CCCCS2(=O)=O)cc1 [SLT, sulthiame]
Ki [1]: 0.00356 mM

SO4^2−
Ki ([1]; read-out: Ki SmCA): 6.86 mM

CF3SO3^−
Ki ([1]; read-out: Ki SmCA): 5.62 mM

S2O8^2−
Ki ([1]; read-out: Ki SmCA): 7.85 mM
